One assay deals with DYRK1A kinase (Homo sapiens, UniProt Q13627). As to the kind of experiment: DYRK1A kinase activity (Ser/Thr 18 peptide Z-lyte FRET assay).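 Note: kinase activity read as coumarin/fluorescein emission ratio after development step, with unphosphorylated and phosphorylated peptide forms setting 0% and 100% controls, values from dose-response curves.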 The format is biochemical. Conditions: recombinant DYRK1A, 30 μM ATP, one hour at room temperature.
Another assay has as its target GSK3β kinase (Homo sapiens, UniProt P49841). Description: GSK3β kinase activity (Ser/Thr 09 peptide Z-lyte FRET assay). The class given is biochemical. Conditions: recombinant kinase, 46 μM ATP, one hour at room temperature; read-out: EC50.
Assay [1] deals with Tau phosphorylation at Ser396 (pSer396). As to the kind of experiment: Tau phosphorylation at Ser396 (pSer396) in SH-SY5Y cells, ELISA / western blot.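 Note: decrease in pSer396 Tau measured in lysates of treated cells by colorimetric ELISA or chemiluminescent western blot, same pSer396 antibody for both.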 The class given is cell-based, human. Conditions: Homo sapiens; SH-SY5Y cells, overnight (16-18 h); read-out: pSer396 Tau EC50. For orientation: An ELISA detects its analyte on a solid surface through an enzyme-linked reagent.
Method: Two days before treatment, cells were seeded onto 96 well plates at 5×10^4 cells/well.
The above synthesized compounds were screened using the cell assay procedure to assess decrease Tau phosphorylation at Ser396 (pSer396) described below.
Cells were lysed with RIPA buffer complemented with phosphatase and protease inhibitors then lysates were spun down at 12,000 g for 10 min to remove any cellular debris.
The test system of assay [2] is secreted cytokines TNFα, IL-6 and KC-GRO. Description: Secreted cytokines in Lipopolysaccharide-stimulated BV-2 cells (Table 9 does not say which cytokine). The format is cell-based, mouse. Conditions: Mus musculus, BV-2, 5 h; read-out: EC50.
The subject of assay [3] is SW480 colon carcinoma cells. Description: Cell viability assay (CellTiter-Glo). The conditions noted are these: Homo sapiens; for EC50: SW480, 96 h; for inhibition at 10 µM: SW480, read-out: percent inhibition at 10 μM. For orientation: Cellular ATP, detected with luciferase, serves as a proxy for viable cell number.
Assay [4] has as its system Wnt-responsive Sp5-Luc reporter in SW480 colon carcinoma cells. Description: Screening assay for Wnt activity (Sp5-Luc reporter gene assay). The conditions noted are these: Homo sapiens; for EC50: SW480; for inhibition at 10 µM: SW480, read-out: percent inhibition at 10 μM. For orientation: In a reporter assay the amount or activity of a reporter protein is the signal.
Method: The screening assay for Wnt activity is described as follows.
SW480 colon carcinoma cells were transduced with a lentiviral vector expressing luciferase with a human Sp5 promoter consisting of a sequence of eight TCF/LEF binding sites. […] These stably transduced SW480 cells were expanded in cell culture and used for all further screening activities. Each compound was dissolved in DMSO as a 10 mM stock and used to prepare compound source plates. Serial dilution (1:3, 10-point dose-response curves starting from 10 μM) and compound transfer was performed using the ECHO 550 (Labcyte, Sunnyvale, Calif.) into 384-well white solid bottom assay plates (Greiner Bio-One) with appropriate DMSO backfill for a final DMSO concentration of 0.1%. […] Following incubation, 15 μl of BriteLite Plus luminescence reagent (Perkin Elmer) was added to each well of the 384-well assay plates. The plates were placed on an orbital shaker for 2 min and then luminescence was quantified using the Envision (Perkin Elmer) plate reader.
The subject of a further assay is IL-6. As to the kind of experiment: IL-6 inhibition in LPS-stimulated human peripheral blood mononuclear cells (HTRF). Conditions: Homo sapiens, PBMC; for EC50: 22 h; for inhibition at 10 µM: read-out: percentage in parentheses after EC50 >10.
For assay [5], the system named is α-smooth muscle actin (aSMA) positive LL29 cells. Description: Inhibition of the fibrotic process: αSMA staining in TGF-β1 treated LL29 fibroblasts from IPF patients. The conditions noted are these: Homo sapiens, Fibroblast; for EC50: 96 h; for inhibition at 10 µM: read-out: percentage in parentheses after EC50 >10.
Method: Each compound was dissolved in DMSO as a 10 mM stock and used to prepare compound source plates. […] LL29 cells were plated at 1,500 cells/well in 70 μL/well F12 medium supplemented with 1% Fetal Bovine Serum. […] Wells treated with TGF-β1 and containing DMSO were used as positive control, and cells with only DMSO were negative control. Cells were incubated at 37° C. and 5% CO2 for 4 days. Following incubation for 4 days, SYTOX green nucleic acid stain (Life Technologies [Thermo Fisher Scientific]) was added to the wells at a final concentration of 1 μM and incubated at room temperature for 30 min. Cells were then fixed using 4% formaldehyde (Electron Microscopy Sciences), washed 3 times with PBS followed by blocking and permeabilization using 3% Bovine Serum Albumin (BSA; Sigma) and 0.3% Triton X-100 (Sigma) in PBS.

Chain of GSK3β kinase (P49841 whole entry): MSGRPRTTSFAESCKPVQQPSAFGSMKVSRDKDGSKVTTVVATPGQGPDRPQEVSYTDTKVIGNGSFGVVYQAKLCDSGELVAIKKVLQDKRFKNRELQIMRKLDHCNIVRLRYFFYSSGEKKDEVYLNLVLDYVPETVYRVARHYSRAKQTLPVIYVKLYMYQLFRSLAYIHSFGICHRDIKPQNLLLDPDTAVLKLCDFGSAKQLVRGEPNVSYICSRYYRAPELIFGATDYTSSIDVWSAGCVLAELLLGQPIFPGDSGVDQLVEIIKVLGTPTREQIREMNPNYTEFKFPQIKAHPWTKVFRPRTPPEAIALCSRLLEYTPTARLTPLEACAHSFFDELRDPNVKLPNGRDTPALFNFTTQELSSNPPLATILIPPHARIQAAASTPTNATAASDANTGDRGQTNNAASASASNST
Method for DYRK1A kinase: Representative compounds were screened using the assay procedure for DYRK1A kinase activity as described below.
Each compound was dissolved in DMSO as a 10 mM stock and used to prepare compound source plates.
This is a non-radioactive assay using fluorescence resonance energy transfer (FRET) between coumarin and fluorescein to detect kinase activity which is represented as a ratio of coumarin emission/fluorescein emission.
The mixture was allowed to incubate with the representative compounds for one hour at room temperature. All reactions were performed in duplicate. Unphosphorylated (“0% Control”) and phosphorylated (“100% control”) forms of Ser/Thr 18 served as control reactions. Additionally, an 11-point dose-response curve of Staurosporine (1 uM top) was run to serve as a positive compound control.
After incubation, Development Reagent A was diluted in Development Buffer then added to the reaction and allowed to further incubate for one hour at room temperature.
Dose-response curves were generated and inhibitory concentration (IC50) values were calculated using non-linear regression curve fit in the Dotmatics' Studies Software (Bishops Stortford, UK).

As to `CN1CCN(c2cc(C(=O)Nc3ncc4ccc(-c5cncs5)cc4n3)ccn2)CC1` [Compound 1536, 2-(4-Methylpiperazin-1-yl)-N-(7-(thiazol-5-yl)quinazolin-2-yl)isonicotinamide], the EC50 at DYRK1A kinase stood at 4 nM; at GSK3β kinase, 207 nM; in assay [1], 1180 nM; in assay [2], 336 nM; in assay [3], 1040 nM; in assay [4], 663 nM. Further, the EC50 in the assay on IL-6 was greater than 10000 nM; in assay [5] it was 1130 nM. For the same compound, the inhibition at 10 µM with IL-6 worked out at 49.6%.

`CN1CCC(C(=O)Nc2ncc3ccc(-c4cnsc4)cc3n2)CC1` [Compound 1598, N-(7-(Isothiazol-4-yl)quinazolin-2-yl)-1-methylpiperidine-4-carboxamide]: the 50% effective concentration (EC50) is 27 nM at DYRK1A kinase; 4180 nM at GSK3β kinase; greater than 10000 nM in assay [1]; 3100 nM in assay [2]; greater than 10000 nM in assay [3]; greater than 10000 nM in assay [4]. Also, the EC50 was greater than 10000 nM in the assay with IL-6 and 1270 nM in assay [5]. Also, the inhibition at 10 µM was found to be 8.4% in assay [3], 15.5% in assay [4] and 7.5% in the assay on IL-6.

With `CO[C@H]1CC[C@@H](C(=O)Nc2ncc3ccc(-c4nnc(C)s4)cc3n2)CC1` [Compound 1612, cis-4-Methoxy-N-(7-(5-methyl-1,3,4-thiadiazol-2-yl)quinazolin-2-yl)cyclohexane-1-carboxamide], the EC50 is 21 nM at DYRK1A kinase; 49 nM at GSK3β kinase; 1100 nM in assay [1]; 2200 nM in assay [2]; greater than 10000 nM in assay [3]; greater than 10000 nM in assay [4]. Besides, the EC50 (in the assay with IL-6; in assay [5]) was greater than 10000 nM throughout. The inhibition at 10 µM in assay [3] came to 23.8%; in assay [4], 37.9%; in the assay on IL-6, 6.3%; in assay [5] it was 42%.

Consider `Cc1nnc(-c2ccc3cnc(NC(=O)C4CCN(C(=O)c5ccccc5)CC4)nc3c2)s1` [Compound 1625, 1-Benzoyl-N-(7-(5-methyl-1,3,4-thiadiazol-2-yl)quinazolin-2-yl)piperidine-4-carboxamide], for which the EC50 at DYRK1A kinase is 25 nM; on GSK3β kinase it was 8 nM; in assay [1], 402 nM; in assay [2] it was 436 nM; in assay [3], greater than 10000 nM; in assay [4], greater than 10000 nM. The EC50 is greater than 10000 nM with IL-6 and 1770 nM in assay [5]. Besides, the inhibition at 10 µM amounted to 18.8% in assay [3], 37.3% in assay [4] and 4% in the assay on IL-6.

`O=C(Nc1ncc2ccc(-c3cccnc3)cc2n1)C1CC1` [Compound 1670, N-(7-(Pyridin-3-yl)quinazolin-2-yl)cyclopropanecarboxamide]: the EC50 on DYRK1A kinase stood at 6 nM; on GSK3β kinase, 120 nM; in assay [1], 604 nM; in assay [2], 2900 nM; in assay [3], 9050 nM; in assay [4] it was 3710 nM. Further, the EC50 in the assay with IL-6 was greater than 10000 nM; in assay [5], 4850 nM. Besides, the inhibition at 10 µM with IL-6 came to 7.2%.

With `Cn1cc(-c2cnc3cnc(NC(=O)C4CC4)cc3c2)cn1` [Compound 2722, N-(3-(1-Methyl-1H-pyrazol-4-yl)-1,7-naphthyridin-6-yl) cyclopropanecarboxamide], the EC50 on DYRK1A kinase was 23 nM; on GSK3β kinase it was 326 nM; in assay [1], 6010 nM; in assay [2] it was 822 nM; in assay [3], greater than 10000 nM; in assay [4], greater than 10000 nM. For the same compound, the EC50 stood at 8900 nM with IL-6 and 1010 nM in assay [5]. The inhibition at 10 µM in assay [3] came to 31%; in assay [4] it was 13.7%.

Consider `Cn1cc(-c2cnc3cnc(NC(=O)C4CCNCC4)cc3c2)cn1` [Compound 2731, N-(3-(1-Methyl-1H-pyrazol-4-yl)-1,7-naphthyridin-6-yl)piperidine-4-carboxamide], for which the EC50 at DYRK1A kinase is 21 nM; on GSK3β kinase, 5510 nM; in assay [1] it was greater than 10000 nM; in assay [2], 1200 nM; in assay [3], greater than 10000 nM; in assay [4], greater than 10000 nM. The EC50 with IL-6 is greater than 10000 nM; in assay [5], 5320 nM. Further, the inhibition at 10 µM worked out at 26.5% in assay [3], 30.9% in assay [4] and 2.8% in the assay with IL-6.

`CC(C)CN1CCC(C(=O)Nc2cc3cc(-c4cnn(C)c4)cnc3cn2)CC1` [Compound 2736, 1-Isobutyl-N-(3-(1-methyl-1H-pyrazol-4-yl)-1,7-naphthyridin-6-yl) piperidine-4-carboxamide]: the EC50 is 30 nM at DYRK1A kinase; 3730 nM at GSK3β kinase; greater than 10000 nM in assay [1]; 109 nM in assay [2]; greater than 10000 nM in assay [3]; greater than 10000 nM in assay [4]. Besides, the EC50 (with IL-6; in assay [5]) was greater than 10000 nM in each case. Moreover, the inhibition at 10 µM was found to be 10.7% in assay [3], 19.3% in assay [4], 0% with IL-6 and 17% in assay [5].

In the case of `Cn1ncc(-c2cnc3cnc(NC(=O)C4CC5(C4)CN(CCF)C5)cc3c2)c1CN1CCCCC1` [Compound 3000, 2-(2-Fluoroethyl)-N-(3-(1-methyl-5-(piperidin-1-ylmethyl)-1H-pyrazol-4-yl)-1,7-naphthyridin-6-yl)-2-azaspiro[3.3]heptane-6-carboxamide], the EC50 at DYRK1A kinase was determined as 10 nM; on GSK3β kinase, 166 nM; in assay [1] it was 1830 nM; in assay [2], 307 nM; in assay [3], 5950 nM; in assay [4] it was 1950 nM. In addition, the EC50 with IL-6 worked out at 2260 nM; in assay [5], 9890 nM.

Regarding `Cn1cncc1-c1cnc2cnc(NC(=O)C3CCC(F)(F)CC3)cc2c1` [Compound 3120, 4,4-Difluoro-N-(3-(1-methyl-1H-imidazol-5-yl)-1,7-naphthyridin-6-yl) cyclohexane-1-carboxamide], the EC50 on DYRK1A kinase is 9 nM; at GSK3β kinase it was 1330 nM; in assay [1] it was 2430 nM; in assay [2] it was 649 nM; in assay [3] it was greater than 10000 nM; in assay [4] it was greater than 10000 nM. For the same compound, the EC50 (in the assay on IL-6; in assay [5]) was greater than 10000 nM each time. The inhibition at 10 µM in assay [3] was found to be 21.4%; in assay [4] it was 16.2%; with IL-6, 7.4%; in assay [5], 27%.

Consider `O=C(Nc1cc2cc(-c3cnco3)cnc2cn1)C1CCN(C(=O)CN2CCCC2)CC1` [Compound 3249, N-(3-(Oxazol-5-yl)-1,7-naphthyridin-6-yl)-1-(2-(pyrrolidin-1-yl)acetyl)piperidine-4-carboxamide], for which the EC50 is 26 nM at DYRK1A kinase; 6120 nM on GSK3β kinase; 10000 nM in assay [1]; 1200 nM in assay [2]; greater than 10000 nM in assay [3]; greater than 10000 nM in assay [4]. For the same compound, the EC50 in the assay with IL-6 is 8320 nM; in assay [5] it was 7060 nM. Besides, the inhibition at 10 µM came to 26.7% in assay [3] and 31.5% in assay [4].

Broadly, the EC50 is the concentration at which the effect is half-maximal.
